Source: PubChem BioAssay (NCI)
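Results reflect a 48-hour exposure of cells in 96-well plates to compound at five concentrations. At the GI50, growth is halved. TGI: total growth inhibition.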

Columns and labels:
Assay in all cases: growth of human tumour cells (NCI), 48 h
OVCAR-3 ovarian = tested on: OVCAR-3 ovarian
DLD-1 colon = tested on: DLD-1 colon
HCT-15 colon = tested on: HCT-15 colon
M19-MEL melanoma = tested on: M19-MEL melanoma
SNB-75 CNS = tested on: SNB-75 CNS
UACC-62 melanoma = tested on: UACC-62 melanoma
OVCAR-5 ovarian = tested on: OVCAR-5 ovarian
K-562 leukemia = tested on: K-562 leukemia
CAKI-1 renal = tested on: CAKI-1 renal
HS 578T breast = tested on: HS 578T breast
MDA-MB-435 = tested on: MDA-MB-435

Compound | TGI (OVCAR-3 ovarian) [µM] | TGI (DLD-1 colon) [µM] | TGI (HCT-15 colon) [µM] | TGI (M19-MEL melanoma) [µM] | TGI (SNB-75 CNS) [µM] | TGI (UACC-62 melanoma) [µM] | TGI (OVCAR-5 ovarian) [µM] | TGI (K-562 leukemia) [µM] | TGI (CAKI-1 renal) [µM] | TGI (HS 578T breast) [µM] | TGI (MDA-MB-435) [µM] | GI50 (SNB-75 CNS) [µM]
CCOC(=O)/C=C1/C(CCCOCc2ccccc2)C2CCCC23CC2(CCN13)OCCO2 (centres undefined) | 49.4 | 73.3 | 51.5 | 40 | 9.41 | 50 | > 100 | 63.7 |  |  |  | 
COc1ccc(CC(N)=O)cc1OC | > 1250 | > 1250 | > 1250 | > 1250 | > 1250 | > 1250 | > 1250 | > 1250 | > 575 |  |  | 
CN1Cc2c(nc(-c3ccccc3)c[n+]2[O-])N(C)C1 | > 100 | > 100 | > 100 | > 100 | > 100 | > 100 | > 100 | > 100 | > 100 |  |  | 
CCOC(=O)CNC(=O)NC12CC3CC(CC(C3)C1)C2 | 398 | > 87.2 | > 550 | 369 | 408 | 416 | > 550 | > 550 | > 487 |  |  | 
COc1ccc(C(=O)NCCN(C)C)c2nc3ccccc3cc12 | 9.93 |  | 7.22 |  | 13.3 | 4.62 | 8.06 | 12.5 | 7.59 | 4.91 | 5.13 | 
Nc1ncnc2c1ccn2C/C=C/CO | > 100 |  | > 100 |  | > 100 | > 100 | > 100 | > 100 | > 100 | > 100 | > 100 | 
CC1(C)C=CC(=O)C(O)C(C)(C)C1=O (centres undefined) | 79.6 |  | > 100 |  | > 100 | > 100 | > 100 | > 100 | > 100 | > 100 | > 100 | 
CC(C)N1CCN(c2ccc(OCC3COC(Cn4cncn4)(c4ccc(Cl)cc4Cl)O3)cc2)CC1 (centres undefined) | 31 |  | 26.5 |  | 27.5 | 5.66 | 29.8 | 19.8 | 40.3 | 31 | 15.8 | 
C=CCn1c(=O)ccn(/C(=C/C(=O)OCC)C(=O)OCC)c1=O | 18.2 |  | 6.52 |  | 30.4 | 29.7 | 29.9 | 12.5 | 4.19 | 73.4 | 26.2 | 
CNc1[nH]c(=S)nc2sc3c(c12)CCCC3 | > 75 |  | > 75 |  | > 75 | > 75 | > 75 | > 75 | > 75 | > 75 | > 75 | 
Cc1ccc2c(c1)c1ccc3c(c1n2C)C(=O)C=CC3=O | 4.53 |  | 3.92 |  | > 10 | 9.48 | > 10 | 2.31 | 4.17 | 8.66 | 5.15 | 
N#CC(c1ccccc1)N(CCOCCOCCN(C(=O)c1ccccc1)C(C#N)c1ccccc1)C(=O)c1ccccc1 (centres undefined) | > 100 |  | > 100 |  | > 100 | > 100 | > 100 | > 100 | > 100 | > 100 | > 100 | 
O=C(NN1C(=O)CS(=O)(=O)C1c1ccc(C(F)(F)F)cc1)c1ccncc1 (centres undefined) |  | > 100 | > 100 |  | > 100 |  | > 100 |  | > 100 |  |  | 
CC(C)(CO)CNc1nc(N)nc(Cl)c1/C=N/O | > 100 |  | > 100 |  | > 100 | > 100 | > 100 | > 100 | > 100 | > 100 | > 100 | 
O=C(NCCCl)O/N=C/c1cccnc1 | > 100 | > 100 | > 100 | > 100 | > 100 | > 100 | > 100 | > 100 | > 100 |  |  | > 100
Cc1ccsc1/C=N/Nc1cnccn1 | > 100 |  | > 100 |  | > 100 | > 100 | > 100 | > 100 | > 100 | > 100 | > 100 | 
N#Cc1sc2c(c1OC(=O)c1ccc(C(F)(F)F)cc1)c(=O)n(-c1ccccc1)c(=S)n2-c1ccccc1 | 55.5 |  | 80.7 |  | 85.7 | 50.9 | > 100 | > 100 | 90.9 | 91.7 | 94.3 | 
